Assay results from article PMC5550016, “Aminophosphinates against Helicobacter pylori ureolysis—Biochemical and whole-cell inhibition characteristics” (PLoS ONE, 2017).
Where two headings read alike, the source gives them in different places.

Experiments:
[1] = system: murine mammary gland epithelium Eph4-Ev; test: Sulforhodamine B antiproliferative assay, Eph4-Ev; assay type: cell-based; details: Mus musculus, compound 0.5 mM, 72 h, read-out: % Proliferation inhibition ± SD
Experimental: (§1) The BALB/3T3 cell line was cultured in Dulbecco MEM (Gibco, Scotland) supplemented with 10% (v/v) FBS (Sigma-Aldrich, Poznań, Poland) and 2 mM L-glutamine (Sigma-Aldrich, Poznań, Poland). The MCF-10A cell line was cultured in F-12 Nutrient mixture supplemented with 5% (v/v) horse serum (both Gibco, Scotland), 0.05 μg/mL cholera toxin, 10 μg/mL insulin, 0.5 μg/mL hydrocortisone, and 20 ng/mL EGFH (all Sigma-Aldrich, Poznań, Poland). The Eph4-Ev cell line was cultured in Dulbecco MEM supplemented with 2 mM L-glutamine, 10% (v/v) calf bovine serum (ATCC Rockville, Maryland, USA) and puromycin (Sigma-Aldrich, Poznań, Poland). The HEC A10 cell line was cultured in OPTI-MEM (IIET, Wroclaw, Poland) supplemented with 2 mM L-glutamine and 5% (v/v) FBS. All culture media were additionally supplemented with antibiotics: 100 U/mL penicillin and 100 μg/mL streptomycin (both Polfa-Tarchomin, Poland). During all experiments, cells were maintained in a humid atmosphere at 37°C and 5% CO2 and passaged twice a week using EDTA-Trypsin (pH 8; IIET, Wroclaw, Poland) solution as a detachment agent.
(§2) This assay was used as previously described with minor modifications. Briefly, 24 h before adding the tested compounds, cells were seeded in 96-well plates (Sarstedt, Germany) in appropriate culture medium with 10^5 […] (100 μL/well). Cells were treated with each compound in at least four concentrations in the range from 500–4 μM for 72 h. Next, cells were fixed with 50 μL/well of 50% (w/v) trichloroacetic acid (Avantor Performance Materials, Gliwice, Poland). After a 1-hour incubation, the plates were washed several times with tap water, and 50 μL of 0.4% (w/v) solution of sulforhodamine B (Sigma-Aldrich, Germany) in 1% (v/v) acetic acid (Avantor Performance Materials, Gliwice, Poland) was added to each well. After a 30-min incubation at room temperature, unbound dye was washed out with 1% (v/v) acetic acid, whereas bound dye was solubilized with 10 mM unbuffered TRIS (Avantor Performance Materials, Gliwice, Poland) solution. The entire procedure was performed using an EL-406 washing station (BioTek Instruments, USA). Next, absorbance at 540 nm was measured using a Synergy H4 Hybrid Reader (BioTek Instruments, USA). Compounds at each concentration were tested in triplicate in a single experiment, and each experiment was repeated three times independently. The results were calculated using the Prolab-3 system based on Cheburator 0.4 software and was presented as proliferation inhibition percentages at the highest concentration used.

[2] = target: T1, urease in intact E. coli (pGEM::ureOP) cells (Helicobacter pylori, UniProt B5Z674); test: Urease inhibition in whole cells of E. coli + pGEM::ureOP; assay type: cell-based; details: IC50 exceeding 2 mM considered not active
T1 construct: plasmid pGEM::ureOP, which encodes the entire urease gene cluster, was used to produce recombinant H. pylori urease; expressed in transfected cells; host or cells: E. coli Rosetta2 (DE3) transformed with pGEM::ureOP
T1 sequence (B5Z674 whole entry, looked up): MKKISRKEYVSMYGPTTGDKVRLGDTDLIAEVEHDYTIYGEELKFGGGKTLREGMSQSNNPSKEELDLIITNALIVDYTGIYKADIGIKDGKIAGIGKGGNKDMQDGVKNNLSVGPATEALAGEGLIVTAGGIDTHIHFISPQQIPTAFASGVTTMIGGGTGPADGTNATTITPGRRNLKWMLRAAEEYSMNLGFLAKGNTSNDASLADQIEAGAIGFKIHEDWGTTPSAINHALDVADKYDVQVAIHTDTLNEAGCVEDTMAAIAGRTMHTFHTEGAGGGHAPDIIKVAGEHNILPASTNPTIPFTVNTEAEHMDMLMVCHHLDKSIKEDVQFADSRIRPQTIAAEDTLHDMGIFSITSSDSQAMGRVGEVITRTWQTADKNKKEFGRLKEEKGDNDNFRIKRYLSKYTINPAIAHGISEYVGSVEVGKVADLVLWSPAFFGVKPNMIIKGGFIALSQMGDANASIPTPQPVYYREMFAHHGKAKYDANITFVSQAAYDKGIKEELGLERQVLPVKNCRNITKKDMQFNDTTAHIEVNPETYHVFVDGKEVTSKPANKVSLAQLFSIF
Experimental: The expression strain E. coli + pGEM::ureOP was cultured in 150 mL of LB broth (Biocorp, Poland) with 100 μg/mL ampicillin (Polfa, Tarchomin, Poland) at 37°C and induced with IPTG (0.75 mM) and Ni^2+ (0.75 mM) during the exponential growth phase, which was determined by the OD600 measurements (OD600 = 0.6). Further expression was conducted for 24 h at 22°C. The bacterial culture (1 mL) was harvested via centrifugation (2 min, 20 376 x g, 37°C) and washed three times with PBS. The pellets from 1-mL samples of the expression cell culture were resuspended in 100 μL of PBS. The hydrolysis of urea that is catalyzed by whole bacterial cells was performed in 96-well plates (Rotilabo, U-profile). The reaction progress curves were obtained by the addition of bacterial cells (1×10^9 CFU/mL final concentration) into mixtures (300 μL final volume) that contained 5 mM urea and various inhibitor concentrations that depended on their inhibitory strength. Alternatively, the reaction was initiated via the addition of a concentrated solution of urea after a 120-min preincubation of bacterial cells with the inhibitor. Samples (50 μL) of the reaction mixture were removed after the appropriate reaction time. The enzymatic reactions in the samples were terminated via the introduction of 100 μL of phenol-sodium nitroprusside solution, immediately followed by the addition of 100 μL of NaOH-hypochlorite solution. The absorption of indophenol blue was measured at 650 nm using a TECAN-Sunrise absorbance reader equipped with a gradient filter and Magellan software. The IC50 values were determined from the linear regression of the urease activity versus the logarithm of the inhibitor concentration. The reaction was studied in the absence and in the presence of the inhibitor. The influence of dimethylformamide (DMF), which was used as a solvent for several compounds, was also determined.

[3] = target: T2, purified recombinant urease from H. pylori (Helicobacter pylori, UniProt B5Z674); test: Inhibition of purified recombinant H. pylori urease (phenol-hypochlorite, Lineweaver-Burk); assay type: biochemical; details: 50 mM phosphate buffer pH 7.5, 37°C, 0.1–2.5 mM urea, competitive reversible inhibition
T2 construct: plasmid pGEM::ureOP, which encodes the entire urease gene cluster, was used to produce recombinant H. pylori urease; made in house; host or cells: E. coli Rosetta2 (DE3) + pGEM::ureOP
T2 sequence (B5Z674 whole entry, looked up): as above
Experimental: The kinetic parameters of urease were determined by measuring the initial rates of the reactions in 50 mM phosphate buffer (pH 7.5) at 37°C. Ammonia was routinely quantified by the phenol hypochlorite method as reported previously.
Inhibition studies were conducted by initiating the enzymatic reaction with the addition of the enzyme into assay mixtures (200 μL total volume) containing increasing concentrations of inhibitors and 0.1–2.5 mM urea. After 15 min of incubation at 37°C, the reaction was stopped by adding phenol-hypochlorite reagents and the absorbance of the formed indophenol blue complexes was measured at 650 nm. The Ki values were determined from Lineweaver-Burk plots after testing at least five inhibitor concentrations in a range that depended on their inhibitory strength. The concentration of inhibitor that caused the loss of 50% of the enzyme’s activity (IC50) was determined from the measurements that were performed at a urea concentration of 0.6 mM and calculated using the linear regression of the urease activity versus the logarithm of the inhibitor concentrations.
The values of Ki and IC50 for all analyzed compounds were calculated using the appropriate equations in GraphPad Prism 5. Errors were reported with two significant digits, and each measured parameter was given with the same number of decimal places as its error [32].

[4] = system: human mammary gland MCF-10A; test: Sulforhodamine B antiproliferative assay, MCF-10A; assay type: cell-based; details: compound 0.5 mM, 72 h, read-out: % Proliferation inhibition ± SD
Experimental: as §1, §2

[5] = system: mouse fibroblasts BALB/3T3; test: Sulforhodamine B antiproliferative assay, BALB/3T3; assay type: cell-based; details: compound 0.5 mM, 72 h, read-out: % Proliferation inhibition ± SD
Experimental: as §1, §2

[6] = target: T3, urease in intact H. pylori J99 (Helicobacter pylori, UniProt P69997); test: Urease inhibition in whole cells of H. pylori J99; assay type: cell-based
T3 construct: In the intact H. pylori J99 cells, the urease susceptibility profile was similar to that of E. coli (pGEM::ureOP); endogenous in cells
T3 sequence (Q9ZMZ4 whole entry): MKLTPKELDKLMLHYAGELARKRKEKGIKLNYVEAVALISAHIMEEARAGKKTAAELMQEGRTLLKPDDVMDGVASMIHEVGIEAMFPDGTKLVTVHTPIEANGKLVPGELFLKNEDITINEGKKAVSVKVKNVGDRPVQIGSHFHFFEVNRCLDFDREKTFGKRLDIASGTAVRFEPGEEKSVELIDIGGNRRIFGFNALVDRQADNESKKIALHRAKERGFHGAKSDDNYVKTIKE
T3 sequence (P69997 whole entry): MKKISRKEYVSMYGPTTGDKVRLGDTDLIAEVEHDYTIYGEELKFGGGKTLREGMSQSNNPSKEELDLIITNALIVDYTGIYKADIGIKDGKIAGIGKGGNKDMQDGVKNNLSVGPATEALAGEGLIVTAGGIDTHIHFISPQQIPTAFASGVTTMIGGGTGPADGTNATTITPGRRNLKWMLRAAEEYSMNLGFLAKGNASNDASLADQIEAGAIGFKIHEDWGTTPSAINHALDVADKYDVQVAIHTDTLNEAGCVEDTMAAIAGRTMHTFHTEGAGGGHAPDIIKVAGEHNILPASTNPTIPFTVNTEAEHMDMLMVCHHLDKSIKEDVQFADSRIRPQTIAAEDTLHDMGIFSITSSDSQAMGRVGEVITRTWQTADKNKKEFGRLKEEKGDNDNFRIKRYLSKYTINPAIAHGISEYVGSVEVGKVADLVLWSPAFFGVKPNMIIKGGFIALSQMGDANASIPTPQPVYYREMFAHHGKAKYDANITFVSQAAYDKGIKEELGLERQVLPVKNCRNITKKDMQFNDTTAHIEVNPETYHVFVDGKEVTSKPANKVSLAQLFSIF

[7] = system: immortalized murine endothelial cell line from peripheral lymph node HEC A10; test: Sulforhodamine B antiproliferative assay, HEC A10; assay type: cell-based; details: Mus musculus, compound 0.5 mM, 72 h, read-out: % Proliferation inhibition ± SD
Experimental: as §1, §2

[8] = IC500, without preincubation of cells with inhibitory compounds, 30-min reactions, 5 mM urea
[9] = IC502h PBS, 2 h of preincubation with inhibitors in PBS
[10] = cells grown with urea, 2 h of preincubation with inhibitors in PBS under microaerobic conditions, read-out: IC502h PBS
[11] = cells grown with urea, 2 h of preincubation with inhibitors in growth medium under microaerobic conditions, read-out: IC502h medium
[12] = cells grown with urea, without preincubation, read-out: IC500
[13] = cells grown without urea, 2 h of preincubation with inhibitors in PBS under microaerobic conditions, read-out: IC502h PBS
[14] = cells grown without urea, without preincubation, read-out: IC500
[15] = read-out: IC500, without preincubation of cells with inhibitory compounds, 30-min reactions, 5 mM urea
[16] = read-out: IC502h PBS, 2 h of preincubation with inhibitors in PBS
[17] = without preincubation of cells with inhibitory compounds, 30-min reactions, 5 mM urea

| SMILES | IC50 [2, 9] | Ki ([3]; Ki) | IC50 [6, 10] | IC50 [6, 11] | IC50 [6, 12] | IC50 [6, 13] | IC50 [6, 14] | IC50 [2, 15] | IC50 [2, 16] | further results |
| --- | --- | --- | --- | --- | --- | --- | --- | --- | --- | --- |
| CNCP(=O)(O)O [Compound 1, N-methylaminomethylphosphonic acid] | 110 ± 21 µM | 38.3 ± 1.1 µM | 349 ± 29 µM | 202 ± 43 µM | 400 ± 8.7 µM | 598 ± 81 µM | 316 ± 18 µM |  |  | inhibition at 500 µM [1]: 1.3 ± 2.3%; IC50 [2, 8]: 164 ± 24 µM; inhibition at 500 µM [4]: 0%; inhibition at 500 µM [5]: 2.7 ± 1.8%; inhibition at 500 µM [7]: 0% |
| CNCP(C)(=O)O [Compound 2] | 306 ± 48 µM | 61.6 ± 3.5 µM | 468 ± 21 µM | 274 ± 87 µM | 597.4 ± 5.2 µM | 852 ± 40 µM | 480 ± 79 µM |  |  | inhibition at 500 µM [1]: 1.1 ± 1%; IC50 [2, 8]: 573 ± 76 µM; inhibition at 500 µM [4]: 0%; inhibition at 500 µM [5]: 1.4 ± 1.1%; inhibition at 500 µM [7]: 0% |
| CCCCCCNCP(=O)(O)CO [Compound 5] |  | 74.3 ± 4.7 µM |  |  |  |  |  |  |  |  |
| CN(C)CP(=O)(O)CN [Compound 8] |  | 29.9 ± 2 µM |  |  |  |  |  |  |  |  |
| CC(C)CNCP(=O)(O)CN [Compound 10] | 1870 ± 113 µM | 440 ± 70 µM | 1130 ± 83 µM | 835 ± 34 µM | > 2000 µM | 980 ± 35 µM | 913 ± 63 µM | > 2000 µM |  |  |
| CCCCNCP(=O)(O)CN [Compound 11] | 284 ± 41 µM | 27 ± 2.1 µM | 816 ± 39 µM | 470 ± 38 µM | 733 ± 9.2 µM | 933 ± 206 µM | 881 ± 35 µM |  |  | IC50 [2, 8]: 779 ± 99 µM |
| CCCCCNCP(=O)(O)CN [Compound 12] | 475 ± 73 µM | 43.1 ± 3.6 µM | 853 ± 93 µM | 806 ± 72 µM | 813 ± 61 µM | 917 ± 105 µM | 872 ± 68 µM |  |  | IC50 [2, 8]: 1670 ± 232 µM |
| CCCCCCCNCP(=O)(O)CN [Compound 14] |  | 878 ± 25 µM | 672 ± 52 µM | 474 ± 34 µM | 942 ± 79 µM | 675 ± 33 µM | 743 ± 74 µM | > 2000 µM | > 2000 µM | IC500 [2, 17]: complete lack of inhibitory effects |
| NCP(=O)(O)CN1CCCCC1 [Compound 16] |  |  | > 2000 µM | > 2000 µM | > 2000 µM | > 2000 µM | > 2000 µM | > 2000 µM | > 2000 µM |  |
| NCP(=O)(O)CNC1CCCCC1 [Compound 17] |  |  | > 2000 µM | > 2000 µM | > 2000 µM | > 2000 µM | > 2000 µM | > 2000 µM | > 2000 µM |  |
| NCP(=O)(O)CNCc1ccccc1 [Compound 18] |  | 44.4 ± 2.5 µM | > 2000 µM | > 2000 µM | > 2000 µM | > 2000 µM | > 2000 µM | > 2000 µM | > 2000 µM | IC500 [2, 17]: complete lack of inhibitory effects |
| CN(Cc1ccccc1)CP(=O)(O)CN [Compound 19] |  | 36.4 ± 4.9 µM | > 2000 µM | > 2000 µM | > 2000 µM | > 2000 µM | > 2000 µM |  |  | IC500 [2, 17]: complete lack of inhibitory effects |
| CCN(CC)CP(=O)(O)CN [Compound 20] |  |  | > 2000 µM | > 2000 µM | > 2000 µM | > 2000 µM | > 2000 µM | > 2000 µM | > 2000 µM |  |
| CN(C)CP(=O)(O)CN(C)C [Compound 22] |  |  | > 2000 µM | > 2000 µM | > 2000 µM | > 2000 µM | > 2000 µM | > 2000 µM | > 2000 µM |  |
| O=P(O)(CNCc1ccccc1)CNCc1ccccc1 [Compound 23] |  | 50.7 ± 4.8 µM | > 2000 µM | > 2000 µM | > 2000 µM | > 2000 µM | > 2000 µM |  |  | IC500 [2, 17]: complete lack of inhibitory effects |
| CC(=O)NO [Compound 24, acetohydroxamic acid, reference compound] |  |  | 1360 ± 194 µM | 192 ± 26 µM | 1670 ± 70 µM | 156 ± 32 µM | > 2000 µM |  |  | IC50 ([2]; 2 h of preincubation with inhibitors in PBS, read-out: IC502h PBS): 96 ± 17 µM; IC50 ([2]; without preincubation of cells with inhibitory compounds, 30-min reactions, 5 mM urea, read-out: IC500): 153 ± 31 µM; Ki ([3]; listed as acetohydroxamic acid, read-out: Ki): 23 µM; Ki ([3]; read-out: Ki): 23.2 ± 1.5 µM; IC50 ([6]; urea-grown cells, preincubation in PBS, read-out: IC502h PBS): 1350 µM; IC50 ([6]; urea-grown cells, without former preincubation, read-out: IC500): 1660 µM |
